According to patent US20170333393A1, “INJECTABLE ANTIOXIDANT FORMULATION FOR INTRAVENOUS USE OF SODIUM ASCORBATE IN HIGH DOSAGE, N-ACETYL CYSTEINE, AND DEFEROXAMINE; METHOD OF ADMINISTRATION AND USE FOR PREVENTING INJURY DUE TO REPERFUSION; AND KIT” (UNIVERSIDAD DE CHILE, priority 2014, published 2017):

Experiments:
isolated rat hearts = experiment: Langendorff isolated heart model, ischemia/reperfusion; recovery of contractibility; parameters: species or system Sprague-Dawley rat; settings: 30 min regional ischemia, 60 min reperfusion; N-acetyl cysteine 36.8 mmol/L, deferoxamine 3.9 mmol/L; N=3 rats per group
Source text: Laboratory trials in murine model, by means of the use of the Langendorff isolated heart model, allowed to preliminarily establish the contribution of the secondary components of the solution in isolated form, in conjunction and in tri-association with sodium ascorbate on the attenuation of lethal reperfusion by means of the evaluation of the percentage of recovery of contractibility, subsequent to the reestablishment of the blood flow, […]
Sprague-Dawley adult male rats (250 to 300 g) were anesthetized with pentobarbital (80 mg/kg IP). Heparine (100 U/kg IV) was administered and the hearts were rapidly extracted and perfused with Krebs-Henseleit solution oxygenated in a Langendorff perfusion system at 37° C. […] The ventricular pressure was measured with a latex balloon inserted, in the left ventricular and connected to a pressure transductor. […]
Evaluation of the injury: The capacity was measured of both components isolated, in conjunction and in tri-association with sodium ascorbate in high dosage, in order to recover the cardiac contractibility, loss associated to the injury due to reperfusion.
For the analysis of the results parametric statistic of the continuous variables was used, expressing the position in terms of arithmetic mean and dispersion based on the standard deviation. The differences between multiple groups were analysed by means of ANOVA with Bonferroni test as Post-Hoc. […]

[1] = test system: patients diagnosed with acute myocardium infarction with indication of primary angioplasty; experiment: PREVEC Phase II randomized, double blind, placebo controlled clinical trial; left ventricular ejection fraction by cardiac magnetic resonance; assay type: in vivo, human
Experimental: In a group of 50 patients subjected to a primary angioplasty due to acute infarction diagnosis, treated only with massive dosage of sodium ascorbate (equivalent dosage to the one used in the three component formulation), a recovery was observed that has never before been reported of the cardiac function in a medium term, only referable to an attenuation of the late effects of the injury due to reperfusion. The evaluation was carried out by means of cardiac magnetic resonance, technique considered the present gold standard for this kind of studies.
A randomized, double blind, placebo controlled clinical trial was applied to patients diagnosed with acute myocardium infarction with indication of primary angioplasty, previously enrolled.
As inclusion criteria, was defined: Individuals of any sex older than 18 years of age; Latency of admission of up to 12 hours since presenting symptoms; First myocardium infarction; Killip 1 and 2; Capacity and willingness to sign consent form.
As exclusion criteria was established: Renal or hepathic insufficiency history; Cardiac failure history (NYHA III, IV); Cardiogenic shock; Comorbility that determines a life expectancy<6 months; Participation in another investigation; Pregnancy; Glucose 6—Phosphate Dehydrogenase deficiency.
Patients were administered an oral dose of vitamin E (800 IU), followed by a sodium ascorbate infusion (320 mmol/L). The placebo group received an inert infusion of sodium chloride solution of the same osmolarity as the sodium ascorbate infusion. Serial blood samples were taken to analyse biomarkers related to myocardium, injury, oxidative stress and inflammation in order to evaluated efficiency on injury due to early reperfusion. […]
The statistical analysis of the preliminary results, was carried out using non parametric statistics, using the median as position measurement, interquartile range as dispersion measurement and the Mann-Whitney U test to determine the statistical significance. Differences between the multiple groups was analysed by means of a Kruskal-Wallis test. […]

Structure (SMILES)	improvement of recovery of contractibility regarding the control group (Placebo) (isolated rat hearts)	early cardiac function (left ventricular ejection fraction), treated versus placebo ([1]; day 6 after primary angioplasty, sodium ascorbate infusion 320 mmol/L after oral vitamin E 800 IU)	change in left ventricular ejection (difference between day 84 and day 6), treated versus placebo ([1]; difference of values 84 and six days after angioplasty, p<0.05)	left ventricular ejection fraction, higher in treated patients versus placebo ([1]; three months (day 84) after primary angioplasty, sodium ascorbate infusion 320 mmol/L after oral vitamin E 800 IU, p<0.05)
CC(=O)N(O)CCCCCNC(=O)CCC(=O)N(O)CCCCCNC(=O)CCC(=O)N(O)CCCCCN [deferoxamine]	113%	–	–	–
CC(=O)N[C@@H](CS)C(=O)O [N-acetyl cysteine]	189%	–	–	–
O=C1O[C@H]([C@@H](O)CO)C([O-])=C1O.[Na+] [sodium ascorbate]	–	did not show any difference	significantly higher	33%
